Some results are limits rather than exact numbers.

One may read the IC50 as the midpoint of a concentration-inhibition curve.

Sequence of recombinant human PDE-10 enzyme (Q9Y233 whole entry): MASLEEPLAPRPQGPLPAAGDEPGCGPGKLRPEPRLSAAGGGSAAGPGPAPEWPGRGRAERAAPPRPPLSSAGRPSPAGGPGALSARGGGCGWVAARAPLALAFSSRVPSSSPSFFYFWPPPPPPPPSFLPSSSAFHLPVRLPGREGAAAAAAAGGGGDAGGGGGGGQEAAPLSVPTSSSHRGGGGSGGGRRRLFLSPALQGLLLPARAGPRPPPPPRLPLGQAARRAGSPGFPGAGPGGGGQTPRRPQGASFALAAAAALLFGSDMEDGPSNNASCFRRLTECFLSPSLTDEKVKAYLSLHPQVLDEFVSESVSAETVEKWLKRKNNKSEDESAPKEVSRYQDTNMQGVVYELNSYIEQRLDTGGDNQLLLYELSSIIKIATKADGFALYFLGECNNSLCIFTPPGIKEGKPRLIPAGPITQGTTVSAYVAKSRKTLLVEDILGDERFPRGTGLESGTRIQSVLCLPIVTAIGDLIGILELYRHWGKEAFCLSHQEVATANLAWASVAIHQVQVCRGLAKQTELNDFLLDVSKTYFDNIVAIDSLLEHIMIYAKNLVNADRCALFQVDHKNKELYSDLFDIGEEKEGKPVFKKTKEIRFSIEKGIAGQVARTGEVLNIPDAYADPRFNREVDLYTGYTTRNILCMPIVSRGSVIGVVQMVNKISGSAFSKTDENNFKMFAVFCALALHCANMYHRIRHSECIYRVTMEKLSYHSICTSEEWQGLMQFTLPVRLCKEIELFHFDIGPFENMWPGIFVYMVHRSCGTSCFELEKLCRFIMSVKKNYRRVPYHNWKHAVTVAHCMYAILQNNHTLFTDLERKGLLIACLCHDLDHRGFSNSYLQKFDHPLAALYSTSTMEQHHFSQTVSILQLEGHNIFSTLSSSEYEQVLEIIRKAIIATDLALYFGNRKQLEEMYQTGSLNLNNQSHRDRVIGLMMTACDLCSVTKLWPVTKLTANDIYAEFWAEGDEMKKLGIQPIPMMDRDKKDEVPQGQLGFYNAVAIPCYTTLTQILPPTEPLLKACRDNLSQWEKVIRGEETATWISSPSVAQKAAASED

The target in this assay is recombinant human PDE-10 enzyme (Homo sapiens (Human), UniProt Q9Y233). Put plainly: Molecular Devices IMAP PDE Fluorescence Polarization assay, human PDE-10 inhibition (enzyme assay IC50). In kind it is biochemical. The settings on record: recombinant human PDE-10 expressed in baculoviral system; Fluorescein-labeled cAMP/cGMP substrate; 40-minute incubation at 37° C. The method, then:
In one embodiment, the compounds provided herein were assayed for their ability to inhibit human PDE-10A. In one embodiment, the activities of the compounds were determined using the Molecular Devices IMAP PDE Fluorescence Polarization assay using recombinant human PDE-10 enzyme expressed in a baculoviral system. Briefly, 10 μL of a compound (0.2 nM-20 μM) was added to either a 96-well half area black plate or a 384-well black plate along with 10 μL of Fluorescein-labeled cAMP/cGMP substrate as per manufacturer's instructions and 10 μL of PDE enzyme (activity 0.1 U). Following a 40-minute incubation at 37° C., 60 μL of IMAP binding reagent was added. The plate was then read on a Perkin Elmer Victor (480-535 nm). The data was analyzed using Prism Software (GraphPad Inc, San Diego, Calif.).
`CCC1COc2ccc(CCc3nc4c(C)ncc(C)n4n3)nc2N1` (stereo not drawn) [Compound 9, 6-(2-(5,8-dimethyl-[1,2,4]triazolo[1,5-a]pyrazin-2-yl)ethyl)-3-ethyl-3,4-dihydro-2H-pyrido[3,2-b][1,4]oxazine]: the concentration for half-maximal inhibition (IC50) lay within 10 to 100 nM.

For the compound `Cc1ncc(C)n2nc(CCc3ccc4c(n3)N[C@H](C)CO4)nc12` [Compound 7, (R)-6-(2-(5,8-dimethyl-[1,2,4]triazolo[1,5-a]pyrazin-2-yl)ethyl)-3-methyl-3,4-dihydro-2H-pyrido[3,2-b][1,4]oxazine], the IC50 fell in the range of 10 to 100 nM. In the case of `Cc1ncc(C)n2nc(CCc3ccc4c(n3)NC(C)(C)CO4)nc12` [Compound 12, 6-(2-(5,8-dimethyl-[1,2,4]triazolo[1,5-a]pyrazin-2-yl)ethyl)-3,3-dimethyl-3,4-dihydro-2H-pyrido[3,2-b][1,4]oxazine], the IC50 lay in the range of 100 to 500 nM.

As to `Cc1ncc(C)n2nc(CCc3ccc4c(n3)NC(C)CC4)nc12` (stereo not drawn) [Compound 3, 7-(2-(5,8-dimethyl-[1,2,4]triazolo[1,5-a]pyrazin-2-yl)ethyl)-2-methyl-1,2,3,4-tetrahydro-1,8-naphthyridine], the IC50 lay within 10 to 100 nM.

As for `Cc1ccc2ccc(CCc3nc4c(C)ncc(C)n4n3)nc2c1` [Compound 1, 2-(2-(5,8-dimethyl-[1,2,4]triazolo[1,5-a]pyrazin-2-yl)ethyl)-7-methylquinoline], the IC50 was no more than 10 nM. Consider `Cc1ncc(C)n2nc(CCc3ccc4c(n3)NC(C)CO4)nc12` (stereo not drawn) [Compound 6, 6-(2-(5,8-dimethyl-[1,2,4]triazolo[1,5-a]pyrazin-2-yl)ethyl)-3-methyl-3,4-dihydro-2H-pyrido[3,2-b][1,4]oxazine], for which the IC50 fell in the range of 10 to 100 nM. In the case of `Cc1ncc(C)n2nc(CCc3ccc4c(n3)N[C@H](C)CC4)nc12` [Compound 4, (R)-7-(2-(5,8-dimethyl-[1,2,4]triazolo[1,5-a]pyrazin-2-yl)ethyl)-2-methyl-1,2,3,4-tetrahydro-1,8-naphthyridine], the IC50 lay in the range of 10 to 100 nM. In the case of `Cc1ncc(C)n2nc(CCc3ccc4c(n3)N(C)C(C)CO4)nc12` (stereo not drawn) [Compound 10, 6-(2-(5,8-dimethyl-[1,2,4]triazolo[1,5-a]pyrazin-2-yl)ethyl)-3,4-dimethyl-3,4-dihydro-2H-pyrido[3,2-b][1,4]oxazine], the IC50 was 100 to 500 nM. Consider `Cc1ncc(C)n2nc(CCc3ccc4c(n3)N[C@@H](C)CO4)nc12` [Compound 8, (S)-6-(2-(5,8-dimethyl-[1,2,4]triazolo[1,5-a]pyrazin-2-yl)ethyl)-3-methyl-3,4-dihydro-2H-pyrido[3,2-b][1,4]oxazine], for which the IC50 was 100 to 500 nM. In the case of `CCC1COc2ccc(CCc3nc4c(C)ncc(C)n4n3)nc2N1C` (stereo not drawn) [Compound 11, 6-(2-(5,8-dimethyl-[1,2,4]triazolo[1,5-a]pyrazin-2-yl)ethyl)-3-ethyl-4-methyl-3,4-dihydro-2H-pyrido[3,2-b][1,4]oxazine], the IC50 is greater than 500 nM.

For `COc1ccc2ccc(CCc3nc4c(C)ncc(C)n4n3)nc2c1` [Compound 2, 2-(2-(5,8-dimethyl-[1,2,4]triazolo[1,5-a]pyrazin-2-yl)ethyl)-7-methoxyquinoline], the IC50 is no more than 10 nM.

As for `Cc1ncc(C)n2nc(CCc3ccc4c(n3)N[C@@H](C)CC4)nc12` [Compound 5, (S)-7-(2-(5,8-dimethyl-[1,2,4]triazolo[1,5-a]pyrazin-2-yl)ethyl)-2-methyl-1,2,3,4-tetrahydro-1,8-naphthyridine], the IC50 was 10 to 100 nM.

The values above are taken from patent US9670230B2, “Heteroaryl compounds and methods of use thereof” (SUNOVION PHARMACEUTICALS INC., priority 2012, dated 2017).
